Experimental data published in US5354862A, “Preparation and the use of halopropargylated cyclic quaternary ammonium compounds as antimicrobial agents” (Rohm and Haas Company, priority 1993, dated 1994).
Where two headings read alike, the source gives them in different places.

Experiments:
Assay in all cases: Broth two-fold serial dilution MIC test
Aspergillus niger = format: cell-based, Aspergillus niger (ATCC 6275); conditions: Anig, TSB media
Text: (§1) A minimum inhibitory concentration (MIC) value is obtained using a broth, two-fold serial dilution test performed as follows: A stock solution or dispersion of the test compound, typically at a concentration of 1%, is made in a 5:3:2 solvent solution of acetone. methanol, and water. A volume of the stock solution is dispensed into culture media to give an initial starting test concentration of 500 ppm compound.
(§2) When the test is ready to be done, each vessel in the dilution series, except the first vessel, contains an equal volume of compound free broth. The first vessel contains twice the volume of broth with the starting concentration of test compound. One half of the broth from the first vessel is transferred to the second vessel- After being mixed, one half the resulting volume is removed from the second vessel and transferred to the third vessel. The entire cycle is repeated sufficiently to give a series of concentrations amounting to 500, 250, 125, 63, 31, 16, 8, and 4, 2, 1, 0.5, 0.25 ppm respectively.
(§3) Each vessel is then inoculated with a cell suspension of the appropriate test organism. Bacteria are grown in broth, fungi on agar slants for a time and at a temperature appropriate to the species being tested, and algae are a mixture of green algae and blue-green bacteria grown in a nutrient media. At the end of the growth period, in the case of bacteria, the broth is vortexed to disperse the cells.
(§4) In the case of fungi, the spores are harvested by pipetting water onto the slant and dislodging the spores with a sterile loop. The cell/spore suspension is standardized by controlling incubation time, temperature, and the volume of the diluent. The suspension is then used to inoculate the vessels containing the broth compound.
(§5) The vessels are then incubated at the appropriate temperature. After the incubation, the vessels are examined for growth/no growth. The minimum inhibitory concentration (MIC) is defined as the lowest concentration of compound that results in complete inhibition of growth of the test organism.
4. Aspergillus niger 6275 Anig

Staphylococcus aureus = format: cell-based, Staphylococcus aureus (ATCC 6538); conditions: Saur
Text: as §1, §2, §3, §4, §5
2. Staphylococcus aureus

Escherichia coli = format: cell-based, Escherichia coli (ATCC 11229); conditions: Ecol
Text: as §1, §2, §3, §4, §5

Pseudomonas aeruginosa = format: cell-based, Pseudomonas aeruginosa (ATCC 15442); conditions: Psae
Text: as §1, §2, §3, §4, §5
1. Pseudomonas aeruginosa

[1] = Staphylococcus aureus, Table 2, M9G media, read-out: MIC
[2] = Staphylococcus aureus, Table 2, TSB media, read-out: MIC
[3] = Aspergillus niger, Table 2, read-out: MIC
[4] = Escherichia coli, Table 2, TSB media, read-out: MIC
[5] = Pseudomonas aeruginosa, Table 2, M9G media, read-out: MIC
[6] = Pseudomonas aeruginosa, Table 2, TSB media, read-out: MIC
[7] = Escherichia coli, Table 2, M9G media, read-out: MIC

Row | MIC (Aspergillus niger; Table 2) [ppm] | MIC (Staphylococcus aureus; [1]) [µg/mL] | MIC (Staphylococcus aureus; [2]) [µg/mL] | MIC (Escherichia coli; Table 2, M9G media) [ppm] | MIC (Escherichia coli; Table 2, TSB media) [ppm] | MIC (Pseudomonas aeruginosa; Table 2, M9G media) [ppm] | MIC (Pseudomonas aeruginosa; Table 2, TSB media) [ppm] | MIC (Aspergillus niger; [3]) [µg/mL] | MIC (Escherichia coli; [4]) [µg/mL] | MIC (Pseudomonas aeruginosa; [5]) [µg/mL] | MIC (Pseudomonas aeruginosa; [6]) [µg/mL] | MIC (Staphylococcus aureus; Table 2, M9G media) [ppm] | MIC (Staphylococcus aureus; Table 2, TSB media) [ppm] | SMILES | also measured
1 | < 0.25 | 0.5 | 0.5 | 4 | 4 | 4 | 4 |  |  |  |  |  |  | CCCCCCCCCCCCCC[N+]1(CC#CI)CCCC1 [Compound 6, 1-Tetradecyl-1-(3-Iodopropargyl)-Pyrrolidinium 4-Methylbenzenesulfonate] | MIC (Aspergillus niger; Aspergillus niger, Table 3 comparison, read-out: MIC): < 0.25 µg/mL; MIC (Staphylococcus aureus; Staphylococcus aureus, Table 3 comparison, M9G media, read-out: MIC): 0.5 µg/mL; MIC (Staphylococcus aureus; Staphylococcus aureus, Table 3 comparison, TSB media, read-out: MIC): 0.5 µg/mL; MIC (Escherichia coli; Table 3 comparison, M9G media): 4 ppm; MIC (Escherichia coli; Table 3 comparison, TSB media): 4 ppm; MIC (Pseudomonas aeruginosa; Pseudomonas aeruginosa, Table 3 comparison, M9G media, read-out: MIC): 4 µg/mL; MIC (Pseudomonas aeruginosa; Pseudomonas aeruginosa, Table 3 comparison, TSB media, read-out: MIC): 4 µg/mL
2 |  | 32 | 32 |  |  |  |  | 32 | 250 | > 250 | > 250 |  |  | OCCCCCCCCCCCC[N+]1(CC#CI)CCCC1 [Compound 2, 1-(12-hydroxydodecyl)-l-(3-iodopropargyl)-pyrrolidinium 4-methylbenzenesulfonate] | 
3 | 125 |  |  | 2 | 8 | 125 | 250 |  |  |  |  | 0.5 | 8 | CCCCCCCCCCOC(=O)C[N+]1(CC#CI)CCOCC1 [Compound 67, 4-(decyloxycarbonyl)methyl-4-(3-iodopropargyl)-morpholinium benzenesulfonate] | 
4 |  | 500 | > 500 |  |  |  |  | > 500 | > 500 | > 500 | > 500 |  |  | OCCCCCCCC[N+]1(CC#CI)CCCC1 [Compound 3, 1-(8-hydroxyoctyl)-1-(3-iodopropargyl)-pyrrolidinium 4-methylbenzenesulfonate] | 
5 |  | < 0.25 | < 0.25 |  |  |  |  | < 0.25 | 1 | 8 | 16 |  |  | CCCCCCCCCCCCCC[N+]1(CC#CI)CC=CCC1 (stereo not shown) [Compound 53, 1-(tetradecyl)-1-(3-iodopropargyl)-1,2,3,6-tetrahydropyridinium benzenesulfonate] | MIC (Escherichia coli; [7]): 2 µg/mL
6 |  | > 250 | > 250 |  |  |  |  | 16 | > 250 | > 250 | > 250 |  |  | CCOC(=O)CC[N+]1(CC#CI)CCCCC1 [Compound 22, 1-(2-ethoxycarbonylethyl)-1-(3-iodopropargyl)-piperidinium 4-methylbenzenesulfonate] | 
7 |  | 2 | 16 |  |  |  |  | 32 | 32 | 250 | 250 |  |  | OCCCCCCCCCCC[N+]1(CC#CI)CCCCC1 [Compound 19, 1-(11-hydroxyundecyl)-1-(3-iodopropargyl)-piperidinium 4-methylbenzenesulfonate] | 
8 |  | < 0.25 | < 0.25 |  |  |  |  | 1 | < 0.25 | 4 | 4 |  |  | CCCCCCCCCCCCCC[N+]1(CC#CI)CCCCCC1 [Compound 45, 1-tetradecyl-1-(3-iodopropargyl)-hexamethyleneiminium 4-methylbenzenesulfonate] | MIC (Escherichia coli; [7]): < 0.25 µg/mL
9 |  |  |  | 4 | 4 | 4 | 16 | 16 |  |  |  | 0.25 | 0.25 | CCCCCCCCCCCCCCCC[N+]1(CC#CI)CCCCC1 [Compound 26, 1-(hexadecyl)-1-(3-iodopropargyl)-piperidinium 4-methylbenzenesulfonate] | 
10 | 1 |  |  | 2 |  | 8 | 8 |  |  |  |  | < 0.25 | 0.5 | CCCCCCCCCCCCCCCC[N+]1(CC#CI)CC(C)OC(C)C1 (stereo not shown) [Compound 48, 4-hexadecyl-4-(3-iodopropargyl)-2,6-dimethylmorpholinium methanesulfonate] | 
11 | 0.25 |  |  | 2 | 16 | 63 | 125 |  |  |  |  | 0.5 | 0.5 | CCCCCCCCCCCC[N+]1(CC#CI)CCCC1 [Compound 37, 1-dodecyl-1-(3-iodopropargyl)-pyrrolidinium methanesulfonate] | 
12 |  | 32 | 64 |  |  |  |  | 32 | 64 | 500 | 500 |  |  | CCCCCCCCCCOC(=O)CC[N+]1(CC#CI)CCOCC1 [Compound 95, 4-[2-(decyloxycarbonyl)]ethyl-4-(3-iodopropargyl)-morpholinium methanesulfonate] | MIC (Escherichia coli; [7]): 16 µg/mL
13 | 16 |  |  | 16 | 32 | 500 | 500 |  |  |  |  | 8 | 32 | CCCCCCCCCCOC(=O)CC[N+]1(CC#CI)CCCC1 [Compound 98, l-[2-(decyloxycarbonyl)]ethyl-1-(3-iodopropargyl)-pyrrolidinium methanesulfonte] | 
14 | 2 | < 0.25 | < 0.25 | 8 | 8 |  |  |  |  | 16 | 16 |  |  | CCCCCCCCCCCCCCCC[N+]1(CC#CI)CC(C)OC(C)C1 (stereo not shown) [Compound 46, 4-hexadecyl-4-(3-iodopropargyl)-2,6-dimethylmorpholinium 4-methylbenzenesulfonate] | 
15 |  | 1 | 1 |  |  |  |  | 32 | 63 | 500 | 500 |  |  | CCCCCCCCCCCCCCCCCC[N+]1(CC#CI)CCCC1 [Compound 16, t-octadecyl-1-(3-iodopropargyl)-pyrrolidinium 4-methylbenzenesulfonate] | MIC (Escherichia coli; [7]): 16 µg/mL
16 | < 0.25 |  |  | 1 | 2 | 8 | 32 |  |  |  |  | < 0.25 | < 0.25 | CCCCCCCCCCCCCCC[N+]1(CC#CI)CCCC1 [Compound 33, 1-pentadecyl-1-(3-iodopropargyl)-pyrrolidinium benzenesulfonate] | 
17 | 8 |  |  | 8 | 8 | 16 | 125 |  |  |  |  | 2 | 2 | CCCCCCCCCCCCCCCC[N+]1(CC#CI)CCCCC1 [Compound 61, 1-hexadecyl-1-(3-iodopropargyl)-piperidinium methanesulfonate] | 
18 | 64 |  |  | 64 | 125 | > 500 | > 500 |  |  |  |  | 125 | 250 | IC#CC[N+]1(Cc2ccccc2)CCOCC1 [Compound 74, 4-benzyl-4-(3-iodopropargyl)-morpholinium methanesulfonate] | 
19 | < 0.25 | < 0.25 | 0.5 |  | < 0.25 |  |  |  |  | 4 | 4 |  |  | CCCCCCCCCCCCCCCC[N+]1(CC#CI)CCOCC1 [Compound 40, 1-hexadecyl-1-(3-iodopropargyt)-morpholinium methanesulfonate] | MIC (Escherichia coli; [7]): 0.5 µg/mL
20 |  | 4 | 16 | 64 |  |  |  | 125 | 64 | > 500 | > 500 |  |  | CCCCCCOC(=O)CCCCC[N+]1(CC#CI)CCOCC1 [Compound 81] | 
